In brackets after ≈: the same amount, converted by molar mass. Where a SMILES comes first, the peptide text is derived from it. Where no end group is shown, it is not given here.
Key:
[1] = test system: human erythrocytes; assay: Human red blood cell hemolysis; type: cell-based; settings: 100 µM
Procedure: With a few minor modifications, red blood cell hemolysis was carried out as previously described ([21]). On a 96-well microtiter plate, 100, 10, 1, and 0 µM NCRs, NCR094 and NCR992 were placed in each well, and […] of 1× PBS was carried out across the plate. Each well received an equivalent volume of 1% human erythrocytes that had been re-suspended in PBS after being washed once with PBS (5 minutes by centrifugation at 3,000 × g to prevent non-specific red blood cell lysis). The plate was then incubated at 37°C for 24 hrs.
As negative and positive controls for hemolysis, respectively, PBS alone and 1% sodium hypochlorite alone were utilized. At a wavelength of 405 nm, hemoglobin release was measured, and the hemolytic capability was expressed as a percentage of the sodium hypochlorite control (100%). The normalization equation normalization = NCR average – negative control average was used to compute the hemolysis percentage. Hemolysis percentage = normalization of NCRs ÷ average of positive control × 100. The hemolysis of 20% and above was considered as toxic to human red blood cells as reported previously ([22]). The mean values and standard deviation (SD) for each assay were carried out in triplicate and repeated three times.
Fig 6 The hemolysis % of the NCRs (NCR094 and NCR992) toward human red blood cells. One percent human red blood cells were treated with 100 µM of the NCRs. (A) NCR094 WT, NCR094.1, NCR094.2, and NCR094.3. (B) NCR992 WT, NCR992.1, NCR992.2, and NCR992 for 16 hrs without shaking. One hundred […] of supernatants was transferred into a new 96-well plate, and the absorbance was measured using a plate reader at 405 nm wavelength. Polymyxin B treatment was […] control. The results were represented as average of the % hemolysis and standard deviations from three independent experiments.
Figure S.1. Dose-dependent hemolysis assay for the NCR collection used in this study.
1% Human red blood cells were treated with 10-fold concentration (100, 10, 1, 0 μM) of NCRs A) (NCR094.1, B)
NCR992 WT) C) NCR992.1, D) NCR992.2, and E) NCR992.1for 18 hrs without shaking. […] of supernatants
were transferred into new 96-well plate and the absorbance was measured using a plate reader at 405 nm wavelength.
The results were represented as average of the % hemolysis and error bars were ± SD values from three independent
(also on this page, place not known: 10100 % of Toxicity 10100 80% of Toxicity 10100 % of Toxicity 10100 % of Toxicity 10100 S- % of Toxicity A)

[2] = test system: K. pneumoniae ATCC700603; type: cell-based, Klebsiella pneumoniae
Procedure: (§1) Bacterial strains used in the experiment were MRSA ATCC29213 and K. pneumoniae ATCC700603. Three NCRs, NCR094 (GenBank# KEH42094.1), NCR992 (GenBank# KEH8992.1), and NCR888 (GenBank# KEH37888.1), and designed derivatives were supplied from GenScript (United States). MRSA and K. pneumoniae were streaked for colonies on blood agar plates and incubated at 37°C for 18–24 hrs. MRSA and K. pneumoniae’s colonies were cultured in cation-adjusted Mueller–Hinton broth (MHB) media and incubated at 37°C for 18–24 hrs. For the in vitro killing assay and the ex vivo human killing assay, MRSA and K. pneumoniae were cultured on an MHB agar plate for 18 hrs at 37°C.
(§2) A broth microdilution assay in cation-adjusted MHB (MilliporeSigma, United States) was used to determine the minimum inhibitory concentrations (MICs) and the mimium bactericidal concentration (MBCs) of our NCR collection’s NCR094, NCR888, and NCR992. After a final bacterial inoculum of 5 × 10^5 CFU/mL was set and incubated for an overnight period at 37°C, the MIC of the NCRs that prevented MRSA or K. pneumoniae from growing visibly was measured. The MBCs was measured by subculturing the broths used in MIC determination into fresh NCR-free agar plates. The MICs of the NCRs were measured after the NCRs were added to the MRSA or K. pneumoniae cultures and dissolved in sterile distilled water.
The bacterial cultures of MRSA and K. pneumoniae were treated with different concentrations of the synthetic NCRs (MRSA: 25, 12.5, 6.25, 3.125, and 0 µM; K. pneumoniae: 50, 25, 12.5, 6.25, 3.125, and 0 µM). […] Thus, NCR888 in the wild type and the different variants were not included in the downstream assays.

[3] = test system: MRSA ATCC29213; assay: Broth microdilution MIC/MBC; type: cell-based, Staphylococcus aureus; settings: tested 25, 12.5, 6.25, 3.125 µM; post-18 hrs of treatment
Procedure: as §1
as §2, with “water. […]” for “water.”

[4] = test system: K. pneumoniae ATCC700603; type: cell-based, Klebsiella pneumoniae; settings: human whole blood, 12.5 µM, 18 hrs 37°C; mean of three independent experiments
Procedure: The whole killing assay was performed as previously described ([19]). Briefly, freshly drawn peripheral venous whole blood was collected on a heparin tube from healthy adult volunteers. To do this, unchallenged blood with and without NCRs at the MIC (blood from the same individuals) was used. Whole blood was then challenged with MRSA or K. pneumoniae ex vivo and incubated for an overnight period at 37°C. Tenfold serial dilution was plated on MH agar media post-18 hrs treatment ([19]). Killing% was calculated as follows: killing% = CFUs for no treatment − CFUs for NCR treatment ÷ […] × 100. Three independent experiments were performed.
The killing effect of NCRs on MRSA and K. pneumoniae was investigated using an ex vivo whole blood killing assay as a preliminary screening method to discover peptides with potential immune-boosting activity. […] The bactericidal ability (killing%) of human whole blood was monitored by counting the CFUs post-18 hrs, and the killing% was calculated.
Fig 2 Whole blood killing assay of NCR094 in the wild type and the derivatives, ex vivo antimicrobial assay. […] CFUs were calculated to estimate the killing percentage. […]
Fig 4 Whole blood killing assay of NCR992 in the wild type and the derivatives, the ex vivo antimicrobial assay. […] CFUs were calculated to estimate the killing percentage. […]

For `CC(C)C[C@H](NC(=O)[C@@H](N)Cc1ccc(O)cc1)C(=O)N[C@@H](CCCCN)C(=O)N[C@@H](CS)C(=O)N[C@@H](CCCCN)C(=O)N[C@H](C(=O)N[C@H](C(=O)N[C@@H](Cc1c[nH]cn1)C(=O)N[C@@H](CC(=O)O)C(=O)N[C@@H](CS)C(=O)N1CCC[C@H]1C(=O)N[C@@H](CCCCN)C(=O)O)C(C)C)[C@@H](C)O` [NCR094.1] (H-YLKCKTVHDCPK-OH; N-terminus and C-terminus assumed), the hemolysis % [1] was 49.38%.

`CC[C@H](C)[C@H](NC(=O)[C@H](CCCCN)NC(=O)[C@@H](NC(=O)[C@H](C)NC(=O)[C@H](CCCNC(=N)N)NC(=O)[C@H](CS)NC(=O)[C@H](Cc1ccc(O)cc1)NC(=O)[C@H](CC(N)=O)NC(=O)CNC(=O)[C@@H](NC(=O)[C@H](CS)NC(=O)[C@H](CCCNC(=N)N)NC(=O)[C@H](Cc1ccc(O)cc1)NC(=O)[C@@H](NC(=O)[C@@H](NC(=O)[C@@H](N)CCC(N)=O)C(C)C)C(C)C)C(C)C)C(C)C)C(=O)N[C@@H](CCCNC(=N)N)C(=O)N[C@@H](CCCNC(=N)N)C(=O)N[C@@H](Cc1c[nH]c2ccccc12)C(=O)N[C@@H](CC(N)=O)C(=O)N[C@@H](CC(C)C)C(=O)NCC(=O)O` [NCR094.2] (H-QVVYRCVGNYCRAVKIRRWNLG-OH; N-terminus and C-terminus assumed) showed a hemolysis % [1] of 8.99%.

`CC[C@H](C)[C@H](NC(=O)[C@H](CCCCN)NC(=O)[C@@H](NC(=O)[C@H](C)NC(=O)[C@H](CCCNC(=N)N)NC(=O)[C@H](CS)NC(=O)[C@H](Cc1ccc(O)cc1)NC(=O)[C@H](CC(N)=O)NC(=O)CNC(=O)[C@@H](NC(=O)[C@H](CS)NC(=O)[C@H](CCCNC(=N)N)NC(=O)[C@H](Cc1ccc(O)cc1)NC(=O)[C@@H](NC(=O)[C@@H](NC(=O)[C@H](CCC(N)=O)NC(=O)[C@H](CO)NC(=O)[C@H](CCCCN)NC(=O)[C@@H]1CCCN1C(=O)[C@H](CS)NC(=O)[C@H](CC(=O)O)NC(=O)[C@H](Cc1c[nH]cn1)NC(=O)[C@@H](NC(=O)[C@@H](NC(=O)[C@H](CCCCN)NC(=O)[C@H](CS)NC(=O)[C@H](CCCCN)NC(=O)[C@H](CC(C)C)NC(=O)[C@@H](N)Cc1ccc(O)cc1)[C@@H](C)O)C(C)C)C(C)C)C(C)C)C(C)C)C(C)C)C(=O)N[C@@H](CCCNC(=N)N)C(=O)N[C@@H](CCCNC(=N)N)C(=O)N[C@@H](Cc1c[nH]c2ccccc12)C(=O)N[C@@H](CC(N)=O)C(=O)N[C@@H](CC(C)C)C(=O)NCC(=O)O` [NCR094] (H-YLKCKTVHDCPKSQVVYRCVGNYCRAVKIRRWNLG-OH; N-terminus and C-terminus assumed) was tested, and the “minimum inhibitory concentration (MIC)” value ([2]; ATCC700603) was 12.5 µM (≈ 52 µg/mL), the “minimum bactericidal / killing concentration (MBC), complete killing” value ([2]; ATCC700603, 18 h) was 25 µM and the hemolysis % [1] was 15.41%.

`CC[C@H](C)[C@H](NC(=O)[C@H](CCSC)NC(=O)CNC(=O)[C@H](Cc1ccccc1)NC(=O)[C@H](CCC(=O)O)NC(=O)[C@H](CS)NC(=O)[C@@H](N)CCSC)C(=O)N[C@@H](CCCNC(=N)N)C(=O)N[C@@H](CCCNC(=N)N)C(=O)N[C@@H](CS)C(=O)O` [NCR992.1] (H-MCEFGMIRRC-OH; N-terminus and C-terminus assumed) showed a hemolysis % [1] of 63.67%.

`CC[C@H](C)[C@H](N)C(=O)N[C@@H](CO)C(=O)N[C@@H](Cc1ccc(O)cc1)C(=O)N[C@@H](CCCCN)C(=O)N[C@@H](CS)C(=O)N[C@@H](CCC(N)=O)C(=O)N[C@@H](CS)C(=O)N[C@@H](Cc1c[nH]cn1)C(=O)N[C@@H](CCC(=O)O)C(=O)N[C@@H](C)C(=O)N[C@@H](Cc1ccc(O)cc1)C(=O)O` [NCR992.2] (H-ISYKCQCHEAY-OH; N-terminus and C-terminus assumed) showed a hemolysis % [1] of 66.77%.

For “MCWPSFKPRCSNGWCVCDKIMP [NCR888, wild-type nodule-specific cysteine-rich peptide of Medicago truncatula, 22 residues, chemically synthesized]”, the “inhibition or killing of K. pneumoniae (in words)” value ([2]; tested 50, 25, 12.5, 6.25, 3.125 µM, post-18 hrs of treatment) was “did not inhibit or kill” and the “inhibition or killing of MRSA (in words)” value [3] was “did not inhibit or kill”.

In the case of MSEFGMIRRSISYKSQSHEAY [NCR992.3], the hemolysis % [1] is reported as 93.34%.

With “YLKSKTVHDSPKSQVVYRSVGNYCRAVKIRRWNLG [NCR094.3]” the “Killing% of K. pneumoniae ex vivo” value [4] was “relatively similar killing activity” and the hemolysis % [1] was 0.69%.

— publication PMC10845954, “Novel antimicrobial peptides identified in legume plant, Medicago truncatula” (Microbiology Spectrum, 2024)
